From article PMC7834886 (Life Sciences, 2020)

How the values were obtained:
[1] = test system: ACE2^hi cells (ACE2 high-expressing HEK293T cells); assay: Cytotoxicity assay; assay type: cell-based; conditions: for effect on activity (survival) of ACE2^hi cells: at concentrations below 100 μM; for cytotoxicity to cells: at 20 μM
ACE2 = ACE2 (Homo sapiens, UniProt Q9BYF1); assay type: binding; conditions: mobile phase 10 mM Na2HPO4 / phosphate-buffer saline pH 7.4; flow rate 0.2 mL/min; 37 °C; UV 254 nm
[2] = preclinical and clinical studies; cited from earlier work

Chain of ACE2 (Q9BYF1 18-805): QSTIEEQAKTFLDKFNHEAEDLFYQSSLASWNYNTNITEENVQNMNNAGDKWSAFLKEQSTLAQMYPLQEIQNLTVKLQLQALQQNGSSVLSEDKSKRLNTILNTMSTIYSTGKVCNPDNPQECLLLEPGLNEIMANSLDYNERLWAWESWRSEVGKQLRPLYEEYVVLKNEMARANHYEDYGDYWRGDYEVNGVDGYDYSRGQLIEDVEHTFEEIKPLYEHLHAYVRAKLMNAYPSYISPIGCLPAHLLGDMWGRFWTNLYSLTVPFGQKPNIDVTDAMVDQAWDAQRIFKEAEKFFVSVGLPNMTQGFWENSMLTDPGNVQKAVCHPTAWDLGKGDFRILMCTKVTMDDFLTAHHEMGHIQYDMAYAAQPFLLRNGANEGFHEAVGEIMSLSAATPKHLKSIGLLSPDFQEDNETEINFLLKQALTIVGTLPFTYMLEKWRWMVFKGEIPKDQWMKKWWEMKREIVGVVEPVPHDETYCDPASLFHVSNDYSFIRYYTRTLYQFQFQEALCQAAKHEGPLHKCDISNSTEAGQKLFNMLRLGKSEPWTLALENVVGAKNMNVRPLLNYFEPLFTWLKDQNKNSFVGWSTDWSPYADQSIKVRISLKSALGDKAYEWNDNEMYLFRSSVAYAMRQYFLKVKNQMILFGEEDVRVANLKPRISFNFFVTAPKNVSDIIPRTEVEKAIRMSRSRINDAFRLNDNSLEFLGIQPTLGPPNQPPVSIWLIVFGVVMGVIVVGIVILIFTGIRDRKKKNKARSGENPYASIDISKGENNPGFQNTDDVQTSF

| SMILES | effect on activity (survival) of ACE2^hi cells ([1]; CCK-8, 24 h) | cytotoxicity to cells [1] | retention time (tR) on ACE2-CMC column (ACE2) [min] | concentration in the lungs relative to plasma [2] | difference in cell viability versus control group ([1]; CCK-8, 24 h, at concentrations below 50 μM) |
| --- | --- | --- | --- | --- | --- |
| O=C1CCc2ccc(OCCCCN3CCN(c4cccc(Cl)c4Cl)CC3)cc2N1 [Ari, aripiprazole] | no significant effect | no cytotoxicity | – | – | – |
| CSc1ccc2c(c1)N(CCC1CCCCN1C)c1ccccc1S2 (stereo not drawn) [Thi, thioridazine] | – | no cytotoxicity | 51.604 | – | – |
| CCN(CC)CCNC(=O)c1cc(S(C)(=O)=O)ccc1OC [Tia, tiapride] | no significant effect | no cytotoxicity | 7.789 | – | – |
| CN(C)CCCN1c2ccccc2Sc2ccc(Cl)cc21 [Chl, Chlorpromazine] | – | no cytotoxicity | – | 20–200 times higher than in plasma | – |
| OCCOCCN1CCN(C2=Nc3ccccc3Sc3ccccc32)CC1 [Que, quetiapine] | – | no cytotoxicity | – | – | no significant difference |
| CN1CCN(CCCN2c3ccccc3Sc3ccc(C(F)(F)F)cc32)CC1 [Tri, Trifluoperazine] | – | no cytotoxicity | – | – | – |
